The target in the experiment is T1, GFP-Flag-tagged Gip1 (Gip1-GFPF) in complex with G proteins (Dictyostelium discoideum, UniProt Q55BQ2).
T1 construct: gene DDB_G0271086; full-length Gip1 (1-310) with GFP-Flag tag, expressed in Dictyostelium cells, on anti-Flag beads with co-purified G proteins; Gγ geranylgeranylated at Cys66
Put plainly: competitive dissociation of G proteins from bead-bound Gip1, immunoblot. Format: biochemical. Particulars: CHAPS buffer pH 7.5, 4 °C, 1 h, 3.5% methanol. (Immunoblotting shows a protein as a band on a membrane.)

Data on two molecules can be found in paper PMC6219514, “Structural basis of Gip1 for cytosolic sequestration of G protein in wide-range chemotaxis” (Nature Communications, 2018).

T1 sequence (Q55BQ2 entry or part of it, one chain of several): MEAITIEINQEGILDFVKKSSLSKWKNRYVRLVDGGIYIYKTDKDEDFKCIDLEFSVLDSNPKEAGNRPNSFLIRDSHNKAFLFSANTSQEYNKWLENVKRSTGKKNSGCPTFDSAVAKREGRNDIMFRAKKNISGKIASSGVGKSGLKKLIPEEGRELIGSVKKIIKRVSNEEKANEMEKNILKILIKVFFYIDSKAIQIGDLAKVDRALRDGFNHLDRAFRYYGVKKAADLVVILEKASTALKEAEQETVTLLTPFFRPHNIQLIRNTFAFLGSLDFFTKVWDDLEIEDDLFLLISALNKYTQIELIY

With `CC(C)=CCC/C(C)=C/CC/C(C)=C/CC/C(C)=C/COP(=O)(O)OP(=O)(O)O` [GG-pyroP, geranylgeranyl pyrophosphate], the relative band intensity result (0-100 µM, competitive with geranylgeranylated Gγ) is reported as “the complex formation was competitively inhibited by the addition of geranylgeranyl pyrophosphate”.

As to `CC(C)=CCC/C(C)=C/CC/C(C)=C/COP(=O)(O)OP(=O)(O)O` [farnesyl pyrophosphate], the relative band intensity result (100 µM) is recorded as “Farnesyl pyrophosphate showed slight impairment of the Gip1–G protein complex”.
